Source: ChEMBL document CHEMBL5604066, “ASAP - DENV-4 NS2B-NS3 protease fluorescence dose response” (2024)
pIC50: −log10 of the molar value. Values joined by “and” are separate entries in the source; they are usually repeats but may differ in a detail not shown here. Equal entries are not always repeated.

Biological target: T1, NS3 protease (dengue virus type 4, UniProt A0A0K0TQ36)
T1 sequence (A0A0K0TQ36 whole entry): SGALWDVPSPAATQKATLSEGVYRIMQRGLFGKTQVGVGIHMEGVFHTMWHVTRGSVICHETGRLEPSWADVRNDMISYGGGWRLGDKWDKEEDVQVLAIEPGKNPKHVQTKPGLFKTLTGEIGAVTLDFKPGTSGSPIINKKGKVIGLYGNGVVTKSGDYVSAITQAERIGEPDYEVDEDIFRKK
Assay: Functional biochemical assay to identify treatments for viral infectious disease that targets Dengue virus type 4 NS2B-NS3 protease. Utilizing a direct enzyme activity measurement method, reading the fluorescence intensity is used to characterize the relative potency of inhibitors as IC50.
Design: species or system Philippines/H241/1956

In the case of `N=C(N)NCCC[C@H](NC(=O)c1nccs1)C(=O)N[C@@H](CCCCN)C(=O)N[C@@H](C(N)=O)c1ccc(OCc2ccc(C(F)(F)F)cc2)cc1`, the pIC50 was 5.59 and 5.76 and 5.57 and 5.83 and 5.94 and 5.73 and 5.98.
`N=C(N)NCCC[C@H](NC(=O)[C@H](Cc1ccc(CN)cc1)NC(=O)c1ccccc1)B(O)O` was tested, and the pIC50 was 6.10 and 6.30.
`COCCNC(=O)[C@H](Nc1ccc2c(c1)CNC2)c1cc(Cl)cc(C2CC2)c1` was tested, and the pIC50 was less than 4.00.
For `O=C(NCC(F)F)[C@H](Nc1ccc2c(c1)CNC2)c1cc(Cl)cc(C2CC2)c1`, the pIC50 was less than 4.00.
Work on `O=C(Nc1ccc2c(c1)CNCC2)c1cc(Cl)cc2[nH]ncc12` yielded a pIC50 of less than 4.00.
In the case of `CC(C)(C)c1cc(Br)cc(C(=O)Nc2ccc3c(c2)CNC3)c1`, the pIC50 was less than 4.00.
For `Clc1ccc2[nH]cc(Cc3ccc(-c4nn[nH]n4)cc3)c2c1`, the pIC50 was 4.00.
`CN1Cc2ccc(NC(=O)c3cc(Cl)cc4[nH]ncc34)cc2C1` was tested, and the pIC50 was less than 4.00.
`O=C(Nc1ccc2c(c1)CNC2)c1cccc(-c2cnco2)c1` gave a pIC50 of 4.63.
In the case of `Cn1cc2cc(Cl)cc(C(=O)Nc3ccc4c(c3)CNC4)c2n1`, the pIC50 was less than 4.00.
For `O=C(Nc1ccc2c(c1)CNC2)c1cc(Br)cc2ccccc12`, the pIC50 was less than 4.00.
Molecule `O=C(Nc1ccc2c(c1)CNC2)c1cc(Cl)cc2c1CCC2` has a pIC50 of less than 4.00.
`CNC(=O)[C@H](Nc1ccc2c(c1)CNC2)c1cc(Cl)cc(C2CC2)c1` showed a pIC50 of less than 4.00.
`O=C1Cc2c(cccc2C(=O)Nc2ccc3c(c2)CNC3)N1` gave a pIC50 of 4.82.
In the case of `N#C[C@H](Nc1ccc2c(c1)CNC2)c1cc(Cl)cc(C2CC2)c1`, the pIC50 was less than 4.00.
With `O=C(Nc1cc(Cl)cc([C@H]2CN(Cc3ccccc3)C[C@@H]2c2cccc(-c3nn[nH]n3)c2)c1)OCc1ccccc1` the pIC50 was 5.17.
In the case of `Clc1cc(CNc2ccc3c(c2)CNC3)c2cn[nH]c2c1`, the pIC50 was 4.41.
Molecule `CC(C)c1cc(Br)cc(C(=O)Nc2ccc3c(c2)CNC3)c1` has a pIC50 of less than 4.00.
`O=C(NC1CCOCC1)[C@H](Nc1ccc2c(c1)CNC2)c1cc(Cl)cc(C2CC2)c1` showed a pIC50 of less than 4.00.
`Cn1cc(CNC(=O)[C@H](Nc2ccc3c(c2)CNC3)c2cc(Cl)cc(C3CC3)c2)cn1` was tested, and the pIC50 was less than 4.00.
Molecule `O=C(Nc1cc(Cl)cc(C(=O)Nc2ccc3c(c2)CNC3)c1)OCc1ccccc1` has a pIC50 of 4.04.
For `Cn1cc(CCc2nc3c(C(=O)Nc4ccc5c(c4)CNC5)cc(Cl)cc3[nH]2)cn1`, the pIC50 was 4.58.
`O=C(Nc1ccc2c(c1)CNC2)c1cc(F)cc2[nH]ncc12` showed a pIC50 of less than 4.00.
In the case of `Cc1c(C(=O)Nc2cc([C@H]3CCOC3)ccn2)cc(C2CC2)n1C`, the pIC50 was less than 4.00.
Work on `O=C(Nc1ccc2c(c1)CNC2)c1cc(Cl)cc2ccncc12` yielded a pIC50 of less than 4.00.
Molecule `O=C1Cc2c(cc(Br)cc2C(=O)Nc2ccc3c(c2)CNC3)N1` has a pIC50 of 4.06.
For `CC(C)NC(=O)[C@H](Nc1ccc2c(c1)CNC2)c1cc(Cl)cc2[nH]c(-c3ccccc3)nc12`, the pIC50 was 4.83 and 5.36.
For `O=C(Nc1cc(Cl)cc([C@H](C#CCO)Nc2cccc(-c3nn[nH]n3)c2)c1)OCc1ccccc1`, the pIC50 was 4.80.
In the case of `O=C(Nc1ccc2c(c1)CNC2)c1cc(Cl)cc2cn[nH]c12`, the pIC50 was less than 4.00.
`NCc1cccc([C@H]2C[C@@H]2c2cc(Cl)cc(NC(=O)OCc3ccccc3)c2)c1` gave a pIC50 of 5.10.
Molecule `C=CC[C@H]1NCc2cc(NC(=O)c3cccc4c3CC(=O)N4)ccc21` has a pIC50 of less than 4.00.
`N#C[C@H](Nc1cccc(-c2nn[nH]n2)c1)c1cc(Cl)cc(NC(=O)OCc2ccccc2)c1` showed a pIC50 of 4.90.
`O=C(Nc1ccc2c(c1)CNC2)c1cc(Cl)cc2[nH]ncc12` gave a pIC50 of less than 4.00.
With `O=C(Nc1ccc2c(c1)CNC2)c1cc(Br)cc2[nH]c(=O)[nH]c12` the pIC50 was 4.41.
Molecule `N#C[C@H](Nc1ccc2c(c1)CNC2)c1cc(Cl)cc2[nH]ncc12` has a pIC50 of less than 4.00.
For `O=C(Nc1cc(Cl)cc(C(=O)Nc2cccc([C@H]3C[C@H]3C(=O)O)c2)c1)OCc1ccccc1`, the pIC50 was 4.48.
`Clc1cc([C@@H]2C[C@H]2c2cccc(C3CCNCC3)c2)c2cn[nH]c2c1` was tested, and the pIC50 was 5.23.
Molecule `Cc1c(C(=O)Nc2cc(-c3cccnc3)ccn2)cc(C2CC2)n1C` has a pIC50 of 5.17.
`O=C(NCC(F)F)[C@H](Nc1ccc2c(c1)CNC2)c1cc(F)cc2[nH]ccc12` gave a pIC50 of less than 4.00.
`Cc1nc2c(C(=O)Nc3ccc4c(c3)CNC4)cc(Cl)cc2[nH]1` showed a pIC50 of 4.57.
`O=C(Nc1cc(Cl)cc(-c2ccc3[nH]c(C(=O)O)cc3c2)c1)OCc1ccccc1` gave a pIC50 of 5.16.
`O=C(NCCC1CC1)[C@H](Nc1ccc2c(c1)CNC2)c1cc(Cl)cc(C2CC2)c1` showed a pIC50 of less than 4.00.
In the case of `C=CC[C@H]1NCc2cc(NC(=O)c3cc(F)cc4[nH]ncc34)ccc21`, the pIC50 was less than 4.00.
`O=C(Nc1cc(Br)c2c(c1)CNC2)c1cc(F)cc2[nH]ncc12` showed a pIC50 of less than 4.00.
Work on `C=CC[C@H](Nc1cc(Cl)cc(NC(=O)OCc2ccccc2)c1)c1cccc(-c2nn[nH]n2)c1` yielded a pIC50 of 5.11.
Molecule `CNC(=O)[C@H](Nc1cc(CN)cc(C(=O)O)c1)c1cc(Cl)cc(C2CC2)c1` has a pIC50 of less than 4.00.
Work on `O=C(NCC(F)F)[C@H](Nc1ccc2c(c1)CNC2)c1cc(F)cc2[nH]ncc12` yielded a pIC50 of less than 4.00.
Work on `O=C1Cc2c(cc(F)cc2C(=O)Nc2ccc3c(c2)CNC3)N1` yielded a pIC50 of 4.27.
For `O=C(Nc1cc(Cl)cc([C@H]2C[C@@H]2c2cccc(C3CCNCC3)c2)c1)OCc1ccccc1`, the pIC50 was 5.26.
Molecule `CC(C)CNC(=O)c1cc(Cl)ccc1NS(=O)(=O)c1ccc(Oc2ccccc2Cl)cc1` has a pIC50 of 4.82.
For `C=CC[C@H]1NCc2cc(N[C@H](C(=O)NC(C)C)c3cc(Cl)cc4[nH]ncc34)ccc21`, the pIC50 was less than 4.00.
For `O=C(NC1CCOCC1)[C@H](Nc1ccc2c(c1)CNC2)c1cc(Cl)cc2[nH]ncc12`, the pIC50 was 4.36.
With `CNC(=O)[C@H](Nc1cc(Cl)cc(NC(=O)OCc2ccccc2)c1)c1cccc(-c2nn[nH]n2)c1` the pIC50 was 4.21.
In the case of `O=C(Nc1ccc2c(c1)CNC2)c1cc(F)c2[nH]ccc2c1`, the pIC50 was less than 4.00.
With `N[C@H]1CC[C@H](c2ccc(NC(=O)c3cc(Cl)cc(NC(=O)OCc4ccccc4)c3)cc2)C1` the pIC50 was 5.12.
Work on `OCC#C[C@H](Nc1ccc2c(c1)CNC2)c1cc(Cl)cc2[nH]ncc12` yielded a pIC50 of 4.65.
In the case of `NCc1cccc(NC(=O)c2cc(Cl)cc(NC(=O)OCc3ccccc3)c2)c1`, the pIC50 was 4.46.
For `c1cc(C2CCN(Cc3c[nH]c4ccccc34)CC2)c2ccncc2c1`, the pIC50 was less than 4.00.
Work on `Cc1cccc(-c2nc3c(C(=O)Nc4ccc5c(c4)CNC5)cc(Cl)cc3[nH]2)c1O` yielded a pIC50 of 5.45.
Molecule `CNC(=O)[C@H](Nc1cccc(CN)c1)c1cc(Cl)cc(NC(=O)OCc2ccccc2)c1` has a pIC50 of less than 4.00.
`O=C(Nc1ccc2c(c1)CNC2)c1cccc2[nH]c(=O)[nH]c12` was tested, and the pIC50 was 4.13.
Work on `CCc1cc(C(=O)Nc2cccc(-n3nn[nH]c3=O)c2)sc1-c1ccc(Cl)cc1` yielded a pIC50 of 4.88.
In the case of `Cc1c(C(=O)Nc2cc(CCCN)ccn2)cc(C2CC2)n1C`, the pIC50 was 4.41.
`NCc1ccc([C@H]2C[C@@H]2c2cc(Cl)cc(NC(=O)OCc3ccccc3)c2)cc1` gave a pIC50 of 5.16.
In the case of `CCOCCNC(=O)[C@H](Nc1ccc2c(c1)CNC2)c1cc(Cl)cc2[nH]ncc12`, the pIC50 was less than 4.00.
`O=C(Nc1cc(Cl)cc(C(=O)Nc2ccc3c(c2)CCNC3)c1)OCc1ccccc1` gave a pIC50 of 4.49.
With `Cc1ccc(NC(=O)c2cc(Cl)cc(NC(=O)OCc3ccccc3)c2)cc1CN` the pIC50 was 4.15.
Work on `O=C(Nc1ccc2c(c1)CNC2)c1cc(F)cc2[nH]c(-c3ccccc3)nc12` yielded a pIC50 of 5.27.
`O=C(Nc1ccc2c(c1)CNC2)c1cc(Cl)cc2nn(-c3ccccc3)nc12` was tested, and the pIC50 was 5.28.
Work on `Cc1[nH]c2ccccc2c1CN1CCC(c2c[nH]c3ncccc23)CC1` yielded a pIC50 of less than 4.00.
Work on `O=C(Nc1cc2c(cc1Br)CNC2)c1cc(F)cc2[nH]ncc12` yielded a pIC50 of less than 4.00.
`CNC(=O)[C@H](Nc1cc(CN)cc(-c2nn[nH]n2)c1)c1cc(Cl)cc(C2CC2)c1` was tested, and the pIC50 was less than 4.00.
For `O=C(Nc1cc(Cl)cc(C(=O)Nc2cccc(-n3nn[nH]c3=O)c2)c1)OCc1ccccc1`, the pIC50 was 4.86.
